{"source": "patent US8518875B2", "about": "“(Carboxylalkylenephenyl)phenyloxamides, method for the production thereof and use of same as a medicament” (SANOFI, priority 2007, dated 2013)", "data": [{"target": "T1, GPCR GPR40 (Homo sapiens, UniProt O14842)", "T1 construct": "expressed in transfected cells; host or cells: HEK293", "T1 sequence (O14842 whole entry)": "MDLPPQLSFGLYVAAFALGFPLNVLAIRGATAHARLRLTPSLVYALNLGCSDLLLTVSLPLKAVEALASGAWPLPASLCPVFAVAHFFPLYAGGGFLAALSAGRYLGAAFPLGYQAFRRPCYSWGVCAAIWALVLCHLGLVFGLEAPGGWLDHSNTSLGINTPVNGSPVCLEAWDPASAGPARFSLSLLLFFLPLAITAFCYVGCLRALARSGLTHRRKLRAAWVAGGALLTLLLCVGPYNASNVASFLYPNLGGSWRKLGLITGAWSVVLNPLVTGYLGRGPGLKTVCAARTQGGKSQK", "assay": "In-vitro FLIPR assay with recombinant cells which express the GPCR GPR40", "type": "cell-based", "conditions": "intracellular Ca2+ in recombinant HEK293 cells expressing GPR40, 100% = 10 μM linoleic acid", "experimental": "In-Vitro FLIPR Assay with Recombinant Cells which Express the GPCR GPR40\nFunction-testing assays were carried out by means of the FLIPR technique (“fluorescence imaging plate reader”, Molecular Devices Corp.). For this purpose, agonist-induced alterations in the intracellular concentration of Ca^2+ in recombinant HEK293 cells which express the GPCR GPR40 were determined.\nFor the investigations, cells were seeded in 96-well microtiter plates (60 000 cells/well) and left to grow overnight. The medium was removed and the cells were incubated in buffer which contained the fluorescent dye Fluo-4. After this loading with dye, the cells were washed, test substance was added and alterations in the intracellular Ca^2+ concentration were measured in the FLIPR instrument. Results have been depicted as percentage alteration relative to the control (0%: no test substance added; 100%: 10 μM reference agonist linoleic acid added) used to calculate dose/activity plots and EC50 values were determined.", "units": {"EC50": "nM"}, "values": [{"smiles": "O=C(O)CCc1ccc(NC(=O)C(=O)Nc2ccc(Cl)cc2Cl)cc1", "note": "[compound 7]", "EC50": 700}, {"smiles": "CC(C)c1ccc(NC(=O)C(=O)Nc2ccc(CCC(=O)O)cc2)c(C(F)(F)F)c1", "note": "[compound 9]", "EC50": 100}, {"smiles": "O=C(O)CCc1ccc(NC(=O)C(=O)Nc2cc(C(F)(F)F)ccc2Br)cc1", "note": "[compound 11]", "EC50": 800}, {"smiles": "O=C(O)CCc1ccc(NC(=O)C(=O)Nc2ccc(Br)cc2Cl)cc1", "note": "[compound 14]", "EC50": 600}, {"smiles": "CC(C)c1ccc(NC(=O)C(=O)Nc2cccc(CCC(=O)O)c2)c(Br)c1", "note": "[compound 21]", "EC50": 16800}, {"smiles": "O=C(O)CCc1cccc(NC(=O)C(=O)Nc2c(Cl)c(Cl)cc(Cl)c2Cl)c1", "note": "[compound 24]", "EC50": 60100}]}]}
